Results as given in ChEMBL document CHEMBL1201862, “PubChem BioAssay data set” (2004).
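The compound was tested at five concentrations on cells cultured in 96-well plates, with a 48-hour exposure period. GI50 = concentration required for 50% inhibition of growth.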 Calls of active or inactive are those of the source. No stated cut-off is given here; in the data, active = GI50 up to about 1.1 µM and inactive = higher.

Legend:
Experiment in all cases: NCI anticancer screen, dose series, 48 h
MCF7 = tested on: MCF7
HL-60 = tested on: HL-60
A498 = tested on: A498
HCC 2998 = tested on: HCC 2998
SK-MEL-28 = tested on: SK-MEL-28
SNB-78 = tested on: SNB-78
K562 = tested on: K562
IGROV-1 = tested on: IGROV-1
UO-31 = tested on: UO-31
UACC-257 = tested on: UACC-257
RPMI-8226 = tested on: RPMI-8226
SNB-75 = tested on: SNB-75
M19-MEL = tested on: M19-MEL
SW-620 = tested on: SW-620
NCI-H226 = tested on: NCI-H226
CCRF-CEM = tested on: CCRF-CEM
SK-MEL-2 = tested on: SK-MEL-2
U-251 = tested on: U-251
SF-295 = tested on: SF-295
KM-20L2 = tested on: KM-20L2
HCT-116 = tested on: HCT-116
HCT-15 = tested on: HCT-15
COLO 205 = tested on: COLO 205
KM12 = tested on: KM12
XF498 = tested on: XF498
HT-29 = tested on: HT-29
UACC-62 = tested on: UACC-62
OVCAR-8 = tested on: OVCAR-8
EKVX = tested on: EKVX
NCI/ADR-RES = tested on: NCI/ADR-RES
SNB-19 = tested on: SNB-19
LOX IMVI = tested on: LOX IMVI
HOP-92 = tested on: HOP-92
DLD-1 = tested on: DLD-1
SN12C = tested on: SN12C
OVCAR-5 = tested on: OVCAR-5
T47D = tested on: T47D
SF-539 = tested on: SF-539
HOP-62 = tested on: HOP-62
NCI-H522 = tested on: NCI-H522
OVCAR-4 = tested on: OVCAR-4
OVCAR-3 = tested on: OVCAR-3
RXF 393 = tested on: RXF 393
TK-10 = tested on: TK-10
ACHN = tested on: ACHN
MDA-MB-435 = tested on: MDA-MB-435
CAKI-1 = tested on: CAKI-1
SK-MEL-5 = tested on: SK-MEL-5
A549 = tested on: A549
SR = tested on: SR
NCI-H460 = tested on: NCI-H460
SF-268 = tested on: SF-268
PC-3 = tested on: PC-3
Hs-578T = tested on: Hs-578T
BT-549 = tested on: BT-549
DU-145 = tested on: DU-145
Malme-3M = tested on: Malme-3M
MOLT-4 = tested on: MOLT-4
MDA-N = tested on: MDA-N
NCI-H23 = tested on: NCI-H23
SK-OV-3 = tested on: SK-OV-3
MDA-MB-231 = tested on: MDA-MB-231
M14 = tested on: M14
786-0 = tested on: 786-0
DMS-273 = tested on: DMS-273
DMS-114 = tested on: DMS-114
LXFL 529 = tested on: LXFL 529

Measured: GI50

CC1OC(O[C@@H]2C=C3CC[C@@H]4[C@H](CC[C@]5(C)[C@@H](c6ccc(=O)oc6)CC[C@]45O)[C@@]3(C)CC2)C(O)C(OC2OC(CO)C(O)C(O)C2O)C1O (some centres not stated)
0.025 µM: HCT-15
active: MCF7 0.025 µM | HL-60 0.025 µM | A498 0.025 µM | HCC 2998 0.025 µM | SK-MEL-28 0.025 µM | SNB-78 0.025 µM | K562 0.025 µM | IGROV-1 0.025 µM | UO-31 0.025 µM | UACC-257 0.025 µM | RPMI-8226 0.025 µM | SNB-75 0.025 µM | M19-MEL 0.025 µM | SW-620 0.025 µM | NCI-H226 0.0255 µM | CCRF-CEM 0.025 µM | SK-MEL-2 0.025 µM | U-251 0.025 µM | SF-295 0.025 µM | KM-20L2 0.025 µM | HCT-116 0.025 µM | COLO 205 0.025 µM | KM12 0.025 µM | XF498 0.025 µM | HT-29 0.0281 µM | UACC-62 0.025 µM | OVCAR-8 0.025 µM | EKVX 0.025 µM | NCI/ADR-RES 0.025 µM | SNB-19 0.025 µM | LOX IMVI 0.025 µM | HOP-92 0.025 µM | DLD-1 0.025 µM | SN12C 0.025 µM | OVCAR-5 0.0275 µM

C[C@H]1[C@H](C)N1CC(O)Cn1ccnc1[N+](=O)[O-] (some centres not stated)
inactive: T47D > 100 µM | MCF7 > 100 µM | HL-60 > 100 µM | SF-539 > 100 µM | HOP-62 > 100 µM | NCI-H522 > 100 µM | OVCAR-4 > 100 µM | OVCAR-3 > 100 µM | A498 > 100 µM | HCC 2998 > 100 µM | SK-MEL-28 > 100 µM | RXF 393 > 100 µM | K562 > 100 µM | IGROV-1 > 100 µM | UO-31 > 100 µM | UACC-257 > 100 µM | RPMI-8226 > 100 µM | SNB-75 > 100 µM | TK-10 > 100 µM | SW-620 > 100 µM | ACHN > 100 µM | MDA-MB-435 > 100 µM | NCI-H226 > 100 µM | CAKI-1 > 100 µM | SK-MEL-5 > 100 µM | CCRF-CEM > 91.6 µM | A549 > 100 µM | SR > 100 µM | NCI-H460 > 100 µM | SF-268 > 100 µM | PC-3 > 100 µM | SK-MEL-2 > 100 µM | U-251 > 100 µM | Hs-578T > 100 µM | SF-295 > 100 µM | BT-549 > 100 µM | HCT-116 > 100 µM | COLO 205 > 100 µM | KM12 > 100 µM | HT-29 > 100 µM | UACC-62 > 100 µM | OVCAR-8 > 100 µM | DU-145 > 100 µM | EKVX > 100 µM | Malme-3M > 100 µM | NCI/ADR-RES > 100 µM | SNB-19 > 100 µM | MOLT-4 > 67.6 µM | LOX IMVI > 100 µM | MDA-N > 100 µM | NCI-H23 > 100 µM | SK-OV-3 > 100 µM | MDA-MB-231 > 100 µM | M14 > 100 µM | SN12C > 100 µM | OVCAR-5 > 100 µM | 786-0 > 100 µM
> 100 µM: HCT-15
active: HOP-92 1 µM

O=C(O)CSc1nnc(COc2ccccc2)n1-c1ccccc1
> 100 µM: HCT-15
inactive: HL-60 > 100 µM | SF-539 > 100 µM | HOP-62 > 100 µM | NCI-H522 > 100 µM | OVCAR-4 > 100 µM | OVCAR-3 > 100 µM | A498 > 100 µM | HCC 2998 > 100 µM | SK-MEL-28 > 100 µM | SNB-78 > 100 µM | IGROV-1 > 100 µM | UO-31 > 100 µM | UACC-257 > 100 µM | RPMI-8226 > 100 µM | SNB-75 > 100 µM | M19-MEL > 100 µM | TK-10 > 100 µM | ACHN > 100 µM | NCI-H226 > 100 µM | DMS-273 > 100 µM | SK-MEL-5 > 100 µM | CCRF-CEM > 100 µM | A549 > 100 µM | SR > 100 µM | NCI-H460 > 100 µM | SF-268 > 100 µM | SK-MEL-2 > 100 µM | U-251 > 100 µM | SF-295 > 100 µM | DMS-114 > 100 µM | KM-20L2 > 100 µM | HCT-116 > 100 µM | COLO 205 > 100 µM | KM12 > 100 µM | HT-29 > 100 µM | OVCAR-8 > 100 µM | Malme-3M > 100 µM | MOLT-4 > 100 µM | LOX IMVI > 100 µM | HOP-92 > 100 µM | LXFL 529 > 100 µM | NCI-H23 > 100 µM | SK-OV-3 > 100 µM | DLD-1 > 100 µM | M14 > 100 µM | SN12C > 100 µM | OVCAR-5 > 100 µM | 786-0 > 100 µM

COc1cc([C@H]2Oc3cc(O)c4c(=O)cc(-c5ccccc5)oc4c3O[C@@H]2CO)ccc1O
inactive: HL-60 50.8 µM | SF-539 22.2 µM | HOP-62 55.1 µM | NCI-H522 19.3 µM | OVCAR-4 19.9 µM | A498 21.9 µM | HCC 2998 58.5 µM | SK-MEL-28 28.6 µM | K562 48.4 µM | IGROV-1 34 µM | UO-31 13.8 µM | RPMI-8226 59.8 µM | SNB-75 16.8 µM | ACHN 20.3 µM | NCI-H226 32.4 µM | DMS-273 51.3 µM | CAKI-1 26.4 µM | CCRF-CEM 65.6 µM | SR 29.4 µM | SF-268 15.6 µM | SK-MEL-2 40.4 µM | DMS-114 28 µM | HCT-116 30.1 µM | COLO 205 69.5 µM | UACC-62 25.1 µM | Malme-3M 19 µM | MOLT-4 46.5 µM | HOP-92 29.7 µM | LXFL 529 21.6 µM | NCI-H23 22.5 µM | SK-OV-3 27.4 µM | DLD-1 46.9 µM | M14 39 µM | SN12C 32.9 µM | 786-0 23.4 µM
91.2 µM: HCT-15

O=C(NCCN1CCCC1)c1cn2c(ccc3sc4ccccc4c(=O)c32)n1
inactive: T47D 19.6 µM | MCF7 2.77 µM | HL-60 5.61 µM | SF-539 14.9 µM | HOP-62 11.7 µM | NCI-H522 10.7 µM | OVCAR-4 12.3 µM | OVCAR-3 14.7 µM | A498 16.3 µM | HCC 2998 6.56 µM | SK-MEL-28 16.6 µM | RXF 393 10.8 µM | K562 1.5 µM | IGROV-1 11.7 µM | UO-31 13.3 µM | UACC-257 17.7 µM | RPMI-8226 1.52 µM | SNB-75 19.1 µM | TK-10 12.5 µM | SW-620 1.51 µM | ACHN 5.13 µM | MDA-MB-435 21 µM | NCI-H226 17 µM | CAKI-1 11.4 µM | SK-MEL-5 10.3 µM | CCRF-CEM 1.22 µM | A549 7.19 µM | SR 1.17 µM | SF-268 12.4 µM | PC-3 13.8 µM | SK-MEL-2 19.2 µM | U-251 16.7 µM | Hs-578T 17 µM | SF-295 13.8 µM | BT-549 17.6 µM | HCT-116 4.02 µM | COLO 205 11.7 µM | KM12 16.7 µM | HT-29 3.18 µM | UACC-62 17.1 µM | OVCAR-8 4.95 µM | DU-145 13.2 µM | EKVX 15.6 µM | Malme-3M 16 µM | NCI/ADR-RES 13.3 µM | SNB-19 13.7 µM | LOX IMVI 1.46 µM | HOP-92 15.2 µM | MDA-N 16.2 µM | NCI-H23 14.6 µM | SK-OV-3 16.3 µM | MDA-MB-231 2.16 µM | M14 15.6 µM | SN12C 10.9 µM | OVCAR-5 11.9 µM | 786-0 1.41 µM
10.9 µM: HCT-15
active: NCI-H460 1.01 µM | MOLT-4 0.422 µM

COc1cc(C2c3cc4c(cc3[C@@H](NC3CCN(Cc5ccccc5)CC3)C3COC(=O)[C@H]23)OCO4)cc(OC)c1O (some centres not stated)
0.132 µM: HCT-15
active: HL-60 0.0189 µM | SF-539 0.0706 µM | HOP-62 0.0282 µM | OVCAR-3 0.277 µM | A498 0.136 µM | HCC 2998 0.274 µM | SK-MEL-28 0.627 µM | M19-MEL 0.308 µM | NCI-H226 0.0137 µM | CCRF-CEM 0.0251 µM | A549 0.0133 µM | SF-268 0.203 µM | SF-295 0.0311 µM | KM-20L2 0.354 µM | HCT-116 0.195 µM | KM12 0.33 µM | HT-29 0.243 µM | OVCAR-8 0.161 µM | SNB-19 0.177 µM | SK-OV-3 0.0457 µM | DLD-1 0.408 µM | OVCAR-5 0.34 µM
